Data from paper PMC10447463, “Data-mining unveils structure–property–activity correlation of viral infectivity enhancing self-assembling peptides” (Nature Communications, 2023).
Like-named read-outs stand apart in the source and are kept apart here.

Tests used:
[1] = Zeta-potential measurement; type: physicochemical; parameters: Zeta-Potential: unit not given here
Procedure: (§1) 4 µL of 1 mg/mL peptide fibrils solution is added to a 20 µL, 50 µM ThT–solution in PBS. The mixture is incubated for 15 min at RT to allow binding of ThT dye with β–sheet rich structures. For reference PBS (4 µL) was added instead of peptide fibril solution. The samples were placed in black UV Star® 384 microliter well–plates (Greiner bio–one). Fluorescence spectra were recorded on an Infinite® M1000 PRO microplate reader (Tecan) at λem = 488 nm upon excitation at λex = 440 nm with 10 nm bandwidths and multiple reads per well (3×3). Measurements were repeated in triplicates and averaged with standard deviation. […] Zeta-Potential. For the determination of the surface charge of aggregated peptides zeta-potential measurements were conducted with a Zetasizer Nano ZS, Malvern Instruments. Unless stated otherwise the peptides were dissolved from DMSO (10 mg/mL) in PBS (pH 7.4) to concentration of 1 mg/mL and incubated for 1d at RT. Just before the measurement the 60 µL of the peptides were further diluted in 600 µL KCl (aq, 1 mM) in a 1 mL disposable folded capillary cells (DTS–1060, Zetasizer Nano series, Malvern). The zeta potential of the peptides was derived from the electrophoretic mobility based on the Smoluchowski formula. All measurements were averaged over two individually performed experiments and conducted in triplicates for each sample. Aggregate analysis. […] Furthermore, fluorescence microscopy was conducted by staining 1 µL preformed fibrils (1 mg/mL) with 9 µL ThT (50 µM). Brightfield microscopy was performed simultaneously to evaluate aggregation also for non ThT-active fibrils. The measurements were performed on a Leica DMi8 microscope with 10x air objective and equipped with a Leica MC170 HD camera with a filter setting λem = 527/30 nm upon excitation at λex = 480/40 nm) and processed with the Leica LASX software. To quantify size and number of microscopic aggregation of particles > 10 µm^2 at least 3 independently measured images were analyzed via the 3D object counter analysis tool of ImageJ, v 1.53f51. Sum–frequency generation. The SFG experiments were carried out with a femtosecond Ti: Sapphire amplified laser system (Spitfire Ace, Spectra–Physics, 800 nm, 40 fs, 1 kHz) with 5 W output power. We used 2 W to pump an optical parametric amplifier (TOPAS, light conversion) with a non–collinear difference frequency generation stage to generate broadband IR pulses. Another 1 W of the laser output passed through an etalon to generate narrowband visible pulses (10 cm^-1). The incident angles of the visible and IR beams were 36° and 41° with respect to the surface normal, respectively. The visible (13 µJ) and IR (5 µJ) pulses were overlapped spatially and temporally at the sample position. Subsequently, the generated SFG pulse was guided into a spectrograph (Acton SP 300i, Princeton Instruments), and detected with an EMCCD (Newton, Andor Technology). To avoid IR absorption of water vapor, we purged N2 for the measurement. All spectra were collected in the ssp (denoting s-, s- and p-polarized SFG, visible and IR, respectively) polarization combination. The spectra were normalized to the non–resonant signal taken from z–cut quartz after subtracting a background spectrum. […]

[2] = type: physicochemical; parameters: key to Fibril / Fibril Formation / TEM 2cat / Fibril: 1 = fibrils present; 0 non-fibrillar structures; conditions: for Fibril / Fibril Formation: 1 mg/mL, uranyl acetate stain, qualitative
Procedure: For ATR FT–IR spectroscopy measurements, 200 µL of the respective 1 mg/mL PNF solution was lyophilized and the resulting powder used for measurement. All spectra were recorded on a Bruker Tensor 27 spectrometer with a diamond crystal as ATR element (PIKE MiracleTM, spectral resolution 2 cm^-1). Every sample was measured with 64 scans. Data were analyzed with OriginLab software and calculation of β–sheet content was conducted according to a previous report. TEM. For TEM measurements 5 µL of PNF fibrils (1 mg/mL) were placed on copper grids coated with carbon and formvar layer (300 mesh, Plano GmbH). After 10 min incubation time, the grids were staining with 4% uranyl acetate solution for 2.5 min and washed with water. Measurements were performed on a Jeol 1400 electron microscope with 120 kV acceleration voltage. CR Assay. For the determination of the amount of peptide monomer converting into nanostructures the amine reactive dye fluorescamine was used analogous to a previous reported protocol. Briefly, 100 µL of the preformed PNF solution was centrifuged in a Vivaspin 500 tube (3 kDa MWCO) to separate fibers from free peptide monomer (16200 x g, 4 °C, 45 min). The filtrate and 100 μL of the non-filtered PNF sample were lyophilized and dissolved in 30 μL DMSO. 10 μL of the filtrate and non-filtered DMSO samples were submitted in a black UV Star® 384 microliter well–plates (Greiner bio–one) and 3 μL of the fluorescamine solution (10 mg/mL, DMSO) was added to measure the fluorescence enhancement. After 20 min of incubation at RT, fluorescence was recorded on an Infinite® M1000 PRO microplate reader (Tecan) at λem = 470 nm upon excitation at λex = 365 nm with 10 nm bandwidths and multiple reads per well (3×3). Measurements were repeated in triplicates and averaged with standard deviation. All values were calculated as n-fold fluorescence enhancement (DMSO only as a reference was set to 1). The conversion rate CR was defined according to the equation Eq. (3).3 CR=100−100×fluorescenceintensityfiltrate/fluorescenceintensityoriginal[%]
(§2) 1. Remarks on experimental parameters and bioinformatic descriptors
1.1 Experimental parameters
Transmission electron microscopy (TEM) measurements. TEM measurements were used to control if peptides assemble. The assemblies were categorized in non -fibrillar structures (no assembly, […]
grid but only amorphous aggregates. In contrast, peptides defined as fibrillar may also include amorphous structures. Amongst nonfibrillar assemblies also amorphous aggregates are summarized.
Amorphous aggregates are defined as structures with high β-sheet content which lack long-range order, that is crystallinity or fibril formation. It is generally assumed that these structures might be

[3] = Turbidity, derived count rate of scattered light; type: physicochemical; conditions: for Count Rate / kcps: derived count rate of scattered light at 633 nm, 173°, from zeta-potential measurement, 0.1 mg/mL in 1 mM KCl after 1 d at 1 mg/mL in PBS, turbidity / microscopic aggregation, mean of triplicate
Procedure: as §1
ways to determine turbidity of samples, this can be via transmittance and via scattering. Transmittance […]
as it is an easy and fast method.10,11 However, transmittance contributes not only from µm-sized aggregates but also nm-sized aggregates such as distinct fibrils, which makes hard to distinguish between fibril formation and micrometer sized aggregation. Although dynamic light scattering is a frequently applied method for determination of particle size, it cannot be conducted in solutions with anisotropic aggregates in micrometer size range, since the Stokes-Einstein relation is only applicable for homogeneous […] spherical particles.12 Further models describing scattering intensity and […]

[4] = Turbidity, derived count rate of scattered light; type: physicochemical; conditions: log10 of derived count rate of scattered light, Figure 7B
[5] = system: HIV-1 infection of TZM-bl cells; assay: HIV-1 infectivity enhancement assay, β-galactosidase luminescence; type: cell-based; conditions: for Log10 Infection Rel EF-C: log10 of infection relative to EF-C; for Inf. rel. EF-C: n-fold infection vs virus only, relative to that of EF-C, 1.3 µM peptide; for Abs Infection at 0.26µM: peptide 0.26 µM; for Abs Infection at 0.26µM / Abs Infection at 1.3 µM / Abs Infection at 6.5 µM: mean of n = 3, Figure 7A; for Abs Infection at 1.3 µM: peptide 1.3 µM; for Abs Infection at 6.5 µM: peptide 6.5 µM
[6] = type: physicochemical
Procedure: 4 µL of 1 mg/mL peptide fibrils solution is added to a 20 µL, 50 µM ThT–solution in PBS. The mixture is incubated for 15 min at RT to allow binding of ThT dye with β–sheet rich structures. For reference PBS (4 µL) was added instead of peptide fibril solution. The samples were placed in black UV Star® 384 microliter well–plates (Greiner bio–one). Fluorescence spectra were recorded on an Infinite® M1000 PRO microplate reader (Tecan) at λem = 488 nm upon excitation at λex = 440 nm with 10 nm bandwidths and multiple reads per well (3×3). Measurements were repeated in triplicates and averaged with standard deviation. […] Zeta-Potential. For the determination of the surface charge of aggregated peptides zeta-potential measurements were conducted with a Zetasizer Nano ZS, Malvern Instruments. Unless stated otherwise the peptides were dissolved from DMSO (10 mg/mL) in PBS (pH 7.4) to concentration of 1 mg/mL and incubated for 1d at RT. Just before the measurement the 60 µL of the peptides were further diluted in 600 µL KCl (aq, 1 mM) in a 1 mL disposable folded capillary cells (DTS–1060, Zetasizer Nano series, Malvern). The zeta potential of the peptides was derived from the electrophoretic mobility based on the Smoluchowski formula. All measurements were averaged over two individually performed experiments and conducted in triplicates for each sample. Aggregate analysis. […] Furthermore, fluorescence microscopy was conducted by staining 1 µL preformed fibrils (1 mg/mL) with 9 µL ThT (50 µM). Brightfield microscopy was performed simultaneously to evaluate aggregation also for non ThT-active fibrils. The measurements were performed on a Leica DMi8 microscope with 10x air objective and equipped with a Leica MC170 HD camera with a filter setting λem = 527/30 nm upon excitation at λex = 480/40 nm) and processed with the Leica LASX software. To quantify size and number of microscopic aggregation of particles > 10 µm^2 at least 3 independently measured images were analyzed via the 3D object counter analysis tool of ImageJ, v 1.53f51. Sum–frequency generation. The SFG experiments were carried out with a femtosecond Ti: Sapphire amplified laser system (Spitfire Ace, Spectra–Physics, 800 nm, 40 fs, 1 kHz) with 5 W output power. We used 2 W to pump an optical parametric amplifier (TOPAS, light conversion) with a non–collinear difference frequency generation stage to generate broadband IR pulses. Another 1 W of the laser output passed through an etalon to generate narrowband visible pulses (10 cm^-1). The incident angles of the visible and IR beams were 36° and 41° with respect to the surface normal, respectively. The visible (13 µJ) and IR (5 µJ) pulses were overlapped spatially and temporally at the sample position. Subsequently, the generated SFG pulse was guided into a spectrograph (Acton SP 300i, Princeton Instruments), and detected with an EMCCD (Newton, Andor Technology). To avoid IR absorption of water vapor, we purged N2 for the measurement. All spectra were collected in the ssp (denoting s-, s- and p-polarized SFG, visible and IR, respectively) polarization combination. The spectra were normalized to the non–resonant signal taken from z–cut quartz after subtracting a background spectrum.
as §2

EFEFQFNMWQ [JH1]
Zeta category ( +1 = if > 4 mV;-1 = if < -4 mV; 0 = -4mV to 4 mV) [1]: 0 (0 = -4mV to 4 mV)
Zeta category ( +1 = if > 4 mV;-1 = if < -4 mV; 0 = -4mV to 4 mV) ([1]; category derived from the zeta potential): 0 (0 = -4mV to 4 mV)
TEM: 1= fibrils, 0= aggregates (micelle), 0.5 = aggregates and fibrils, -1 = nothing obersved, STD prep [2]: 1
TEM: 1= fibrils, 0= aggregates (micelle), 0.5 = aggregates and fibrils, -1 = nothing obersved, STD prep ([2]; TEM): 1

ISKLEYSNFSVRY [reference compound]
Count Rate / kcps [3]: 7807 kcps
Log10 Count Rate [4]: 3.893
Zeta pot. / mV ([1]; 1 mg/mL in PBS pH 7.4 from 10 mg/mL DMSO stock, 1 d RT, 60 µL diluted in 600 µL 1 mM KCl, Zetasizer Nano ZS, Smoluchowski, mean of triplicate): 9.3 mV
Zeta-Potential / mV ([1]; mean, Figure 7B): 9.33 mV
Fibril / Fibril Formation ([2]; TEM): 1
Log10 Infection Rel EF-C ([5]; Figure 7B): -0.26
Inf. rel. EF-C [5]: 0.54
Abs Infection at 0.26µM [5]: 23820
Abs Infection at 1.3 µM [5]: 58613.33333
Abs Infection at 6.5 µM [5]: 157450

LANWMCLAKW [reference compound]
Count Rate / kcps [3]: 15062 kcps
Count Rate ([3]; derived count rate of scattered light, mean of n = 3): 15061.73333 kcps
Count Rate ([3]; derived count rate of scattered light, replicate 1): 20482.8 kcps
Count Rate ([3]; derived count rate of scattered light, replicate 2): 10116.2 kcps
Count Rate ([3]; derived count rate of scattered light, replicate 3): 14586.2 kcps
ThT Cat. / ThT-Fluorescence (categorical) ([6]; ThT-active if fluorescence at least twice the control): 1 (ThT. Cat is 1, if Rel. ThT >2)
Log10 Count Rate [4]: 4.178
Zeta Potential ([1]; mean of n = 3): 14.73
Zeta-Potential / mV ([1]; mean, Figure 7B): 14.73 mV
Zeta-Potential ([1]; replicate 1): 14.5
Zeta-Potential ([1]; replicate 2): 14.6
Zeta-Potential ([1]; replicate 3): 15.1
Log10 Infection Rel EF-C ([5]; Figure 7B): -0.4
Inf. rel. EF-C [5]: 0.40
Abs Infection at 0.26µM [5]: 44873.33333
Abs Infection at 1.3 µM [5]: 80126.66667
Abs Infection at 6.5 µM [5]: 133423.3333

ILKNLSRSRKIKIQINMWQ [TM92]
Zeta Count Rate Category ([3]; category 1 or 0 from count rate, key not given): 1
Zeta Count Rate / kcps ([3]; derived count rate of scattered light, mean, std deviation in next column): 306.5 kcps
Tht rel to blank (42.1851851851852) ([6]; ThT fluorescence relative to blank (42.1851851851852 a.u.)): 3.339
Zeta category ( +1 = if > 4 mV;-1 = if < -4 mV; 0 = -4mV to 4 mV) ([1]; category from zeta potential): 1 (+1 = if > 4 mV)
Zeta Pot. / mV ([1]; mean, Std Zeta in next column): 19.2 mV
Zeta-pot. / mV ([1]; zeta potential of peptide, Fig S15 source data): 19.2 mV
Log10 of Rel to EFC (Feb2021) ([5]; Feb2021, Log10 of infectivity relative to EF-C): -0.4939
Rel-to EFC (Feb-2021) ([5]; Feb2021, n-fold enhancement relative to EF-C): 0.3207
infectivity ([5]; infectivity class (low / medium / high) of each library peptide, main list in c1-c6, same classes repeated in sub-lists of sequences containing the hydrophobicity/charge patterns P+,H0,P+,H0,P0,H0,P0, P+,H0,P0,H0,P0,H0,P0, P+,H0,P0,H0): medium
Log10 Inf. rel. to EF-C ([5]; log10 of HIV-1 infection of TZM-bl cells relative to EF-C, Fig S15 source data, asymmetric std dev errors): -0.4939

KCQCQCQ
Count Rate / kcps [3]: 15236 kcps
Log10 Count Rate ([3]; log10 of derived count rate of scattered light, Figure 6C): 4.183
Log10 Count Rate ([3]; logarithm of count rate in kcps): 4.183
Zeta-Potential / mV ([1]; mean, Figure 6C): 11.83 mV
Fibril / Fibril Formation ([2]; TEM): 1
Log10 Infection Rel EF-C ([5]; Figure 6C): 0.05949
Inf. rel. EF-C [5]: 1.15
